Test results: patent US20140343480A1, “SYSTEMS, METHODS, AND COMPOSITIONS FOR CROSS-LINKING” (AVEDRO, INC., priority 2013, published 2014)
≈ marks a conversion by molar mass, not a printed value.

Assays:
corneal collagen [1] = experiment: Papain digest fluorescence of corneal flaps (collagen cross-linking); design: species or system Pig; details: for fluorescence (relative to the untreated controls, Fo) recorded at 450 nm: 1% solution in dH2O; for fluorescence of the corneal samples after digestion with papain (excitation 360 nm): 30 mW/cm^2, pulsed 1 s on/1 s off, 8 min, oxygen, vs controls not exposed to UV; for fluorescence of the digested corneas in the area 450 nm: 20 min soak, 30 mW/cm^2, 4 min continuous UVA, vs non-cross-linked control
Method: Corneas were pan-corneally irradiated with a top hat beam (3% root mean square) for 8 minutes (7.2 J total dose) in a cylinder filled with oxygen with 365-nm light source (pulsing 1 second on, 1 second off) (UV LED NCSU033B[T]; Nichia Co., Tokushima, Japan) at the chosen irradiance (30 mW/cm^2) which was measured with a power sensor (model PD-300-UV; Ophir, Inc., Jerusalem, Israel) at the corneal surface. Before the start of irradiation, oxygen's exposure was 2 minutes. Corneal flaps (approximately 200 μm thick) were excised from the eyes with aid of Intralase femtosecond laser (Abbot Medical Optics, Santa Ana, Calif.). The average thickness of the corneal flaps was calculated as a difference between the measurements before and after the excision from the eyes with an ultrasonic Pachymeter (DGH Technology, Exton, Pa.). The flaps were washed with distilled water two times, dried with filter paper, washed with dH2O two times, and then dried in a vacuum until the weight change became less than 10% (Rotary vane vacuum pump RV3 A652-01-903, BOC Edwards, West Sussex, UK). Each flap was digested for 2.5 hours at 65° C. with 2.5 units/ml of papain (from Papaya latex, Sigma) in 1 ml of papain buffer [BBBS (pH 7.0-7.2), 2 mM L-cysteine and 2 mM EDTA]. Papain digests were centrifuged for 5 seconds at 2200×G (Mini centrifuge 05-090-100, Fisher Scientific), diluted 0.5 times with BBBS and fluorescence of the solutions was measured with excitation of λex=360 nm in a QM-40 Spectrofluorometer (Photon Technology Int., London, Ontario, Canada). The fluorescence of the papain buffer was taken into account by measuring fluorescence in the absence of tissue and subtracting this value from the fluorescence of the samples.
This method was used because the non-enzymatic cross-link density in collagens was previously quantified with use of papain digest fluorescence. There is a linear relationship between fluorescence and increasing cross-linking activity.
Corneal flaps were soaked in either distilled water or diluted H2O2 (1%) for 20 minutes. Flaps soaked in H2O2 were either rinsed twice with distilled water or removed from H2O2 and placed in 0.1% FeSO4 solution in distilled water for an additional 20 minute soak followed by a 2× rinse with distilled water. Flaps were dried in a vacuum until the weight change became less than 10% (Rotary vane vacuum pump RV3 A652-01-903, BOC Edwards, West Sussex, UK). Each flap was digested for 2.5 hours at 65° C. with 2.5 units/ml of papain (from Papaya latex, Sigma) in 1 ml of papain buffer [BBBS (pH 7.0-7.2), 2 mM L-cysteine and 2 mM EDTA]. Papain digests were centrifuged for 5 seconds at 2200×G (Mini centrifuge 05-090-100, Fisher Scientific), diluted 0.5 times with BBBS and fluorescence of the solutions was measured with excitation of λex=360 nm in a QM-40 Spectrofluorometer (Photon Technology Int., London, Ontario, Canada). The fluorescence of the papain buffer was taken into account by measuring fluorescence in the absence of tissue and subtracting this value from the fluorescence of the samples.
Pig eyes were shipped overnight on ice from an abattoir (SiouxPreme, Sioux City, Iowa), rinsed in saline. Eyes were cleaned and epithelium was removed. […] If specified, eyes were placed in a beaker with a light oxygen stream for 2 minutes in the incubation chamber prior to irradiation. Corneas were pan-corneally irradiated with a top hat beam (3% root mean square) for the chosen time (4 or 8 minutes) with 365-nm light source (UV LED NCSU033B[T]; Nichia Co., Tokushima, Japan) at the chosen irradiance (30 mW/cm^2, pulsed or non-pulsed) which was measured with a power sensor (model PD-300-UV; Ophir, Inc., Jerusalem, Israel) at the corneal surface. Corneal flaps (approximately 200 μm thick) were excised from the eyes with aid of Intralase femtosecond laser (Abbot Medical Optics, Santa Ana, Calif.).

corneal collagen [2] = experiment: Biaxial extensometry (tensiometry) of corneal flaps; design: species or system Pig; details: for displacement-force (corneal stiffness): 1% solution in dH2O; for displacement vs. force (corneal stiffening): 30 mW/cm^2, pulsed 1 s on/1 s off, 8 min, oxygen, vs unexposed controls
Method: Pig eyes were shipped overnight on ice from an abattoir (SiouxPreme, Sioux City, Iowa), rinsed in saline. Eyes were cleaned and epithelium was removed. […] If specified, eyes were placed in a beaker with a light oxygen stream for 2 minutes in the incubation chamber prior to irradiation. Corneas were pan-corneally irradiated with a top hat beam (3% root mean square) for the chosen time (4 or 8 minutes) with 365-nm light source (UV LED NCSU033B[T]; Nichia Co., Tokushima, Japan) at the chosen irradiance (30 mW/cm^2, pulsed or non-pulsed) which was measured with a power sensor (model PD-300-UV; Ophir, Inc., Jerusalem, Israel) at the corneal surface. Corneal flaps (approximately 200 μm thick) were excised from the eyes with aid of Intralase femtosecond laser (Abbot Medical Optics, Santa Ana, Calif.). The average thickness of the corneal flaps was calculated as a difference between the measurements before and after the excision from the eyes with an ultrasonic Pachymeter (DGH Technology, Exton, Pa.). The flaps were placed into a biaxial extensometer (CellScale Biotester 5000, Waterloo, ON), using biorake attachments with 5 tines spanning a width of 3 mm. Each sample was stretched at a constant rate of 4 μm/s in saline at 37° C. until sample failure. The flaps were washed with distilled water 2 times, dried with filter paper, washed with dH2O two times, and then dried in a vacuum until the weight change became less than 10% (Rotary vane vacuum pump RV3 A652-01-903, BOC Edwards, West Sussex, UK). Each flap was digested for 2.5 hours at 65° C. with 2.5 units/ml of papain (from Papaya latex, Sigma) in 1 ml of papain buffer [BBBS (pH 7.0-7.2), 2 mM L-cysteine and 2 mM EDTA]. Papain digests were centrifuged for 5 seconds at 2200×G (Mini centrifuge 05-090-100, Fisher Scientific), diluted 0.5 times with 1XBBBS and fluorescence of the solutions was measured with excitation of λex=360 nm in a QM-40 Spectrofluorometer (Photon Technology Int., London, Ontario, Canada). The fluorescence of the papain buffer was taken into account by measuring fluorescence in the absence of tissue and subtracting this value from the fluorescence of the samples.
Pig eyes were shipped overnight on ice from an abattoir (SiouxPreme, Sioux City, Iowa), rinsed in saline. Eyes were cleaned and epithelium was removed. […] Corneas were pan-corneally irradiated with a top hat beam (3% root mean square) for 4 minutes with 365-nm light source (UV LED NCSU033B[T]; Nichia Co., Tokushima, Japan) at irradiance 30 mW/cm^2, which was measured with a power sensor (model PD-300-UV; Ophir, Inc., Jerusalem, Israel) at the corneal surface. Corneal flaps (approximately 200 μm thick) were excised from the eyes with aid of Intralase femtosecond laser (Abbott Medical Optics, Santa Ana, Calif.). The average thickness of the corneal flaps was calculated as a difference between the measurements before and after the excision from the eyes with an ultrasonic Pachymeter (DGH Technology, Exton, Pa.). The flaps were then placed into a biaxial extensometer (CellScale Biotester 5000, Waterloo, ON), using biorake attachments with 5 tines spanning a width of 3 mm. Each sample was stretched at a constant rate of 4 μm/s in saline at 37° C. until sample failure. The flaps were washed with distilled water, dried in a vacuum until the weight change became less than 10% (Rotary vane vacuum pump RV3 A652-01-903, BOC Edwards, West Sussex, UK). Each flap was digested for 2.5 h at 65° C. with 2.5 units/ml of papain (from Papaya latex, Sigma) in 1 ml of papain buffer [BBBS (pH 7.0-7.2), 2 mM L-cysteine and 2 mM EDTA]. Papain digests were centrifuged for 5 seconds at 2200×G (Mini centrifuge 05-090-100, Fisher Scientific), diluted 0.5 times with 1XBBBS and fluorescence of the solutions was measured with excitation of λex=360 nm in a QM-40 Spectrofluorometer (Photon Technology Int., London, Ontario, Canada).

[3] = Solubility of folic acid in phosphate buffer; type: physicochemical; details: pH 7, aqueous buffer, 25° C., pH of the final solution 7.0
Source text: FA is soluble in water with dependence on pH and temperature. […] FA has UV light absorbance at 400 nm and below (the long wave peak at 360 nm as shown in FIG. 16), and fluorescence with maximum around 460 nm (as shown in FIG. 17).

human serum albumin = human serum albumin (Homo sapiens, UniProt P02768); details: irradiated in the presence of human serum albumin; cited from earlier work
Chain of human serum albumin (P02768 25-609): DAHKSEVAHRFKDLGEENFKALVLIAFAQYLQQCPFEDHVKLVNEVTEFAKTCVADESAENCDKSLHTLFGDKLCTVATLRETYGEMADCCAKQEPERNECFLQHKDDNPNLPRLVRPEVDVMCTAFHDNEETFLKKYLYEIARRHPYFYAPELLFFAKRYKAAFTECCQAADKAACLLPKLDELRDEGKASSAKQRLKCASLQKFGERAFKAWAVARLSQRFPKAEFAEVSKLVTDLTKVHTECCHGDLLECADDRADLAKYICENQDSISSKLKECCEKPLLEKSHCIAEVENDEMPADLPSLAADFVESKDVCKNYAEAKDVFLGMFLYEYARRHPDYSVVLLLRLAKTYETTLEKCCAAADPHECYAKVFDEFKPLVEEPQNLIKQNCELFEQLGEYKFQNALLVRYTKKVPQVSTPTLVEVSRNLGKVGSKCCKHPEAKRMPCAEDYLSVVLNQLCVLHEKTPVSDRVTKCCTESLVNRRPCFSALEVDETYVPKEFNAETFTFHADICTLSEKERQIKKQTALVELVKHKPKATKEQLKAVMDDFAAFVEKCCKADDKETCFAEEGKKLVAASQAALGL

## CC(=O)C(C)=O [2,3-butanedione]
Corneal collagen [1]; UV 365 nm, 30 mW, 4 min
  fluorescence (relative to the untreated controls, Fo) recorded at 450 nm: increase of the corneal stiffness and fluorescence output
Corneal collagen [1]; without UV light
  fluorescence (relative to the untreated controls, Fo) recorded at 450 nm: does not cross-link corneal flaps
Corneal collagen [2]; UV 365 nm, 30 mW, 4 min
  displacement-force (corneal stiffness): increase of the corneal stiffness
Corneal collagen [2]; without UV light
  displacement-force (corneal stiffness): does not cross-link corneal flaps

## Nc1nc2ncc(CNc3ccc(C(=O)N[C@@H](CCC(=O)O)C(=O)O)cc3)nc2c(=O)[nH]1 [FA, Folic acid]
Corneal collagen [1]; UV 365 nm
  fluorescence of the corneal samples after digestion with papain (excitation 360 nm): fluorescence of the cross-linked collagen samples increases
Corneal collagen [2]; UV 365 nm
  displacement vs. force (corneal stiffening): significant stiffening
[3]
  solubility: 5500 µg/mL (≈ 12.5 mM)

## Cc1c(C(=O)NCCO)[n+]([O-])c2ccccc2[n+]1[O-] [Olaquindox, N-(2-hydroxyethyl)-3-methyl-2-quinoxalinecarboxamide 1,4-dioxide]
Corneal collagen [1]; 0.4% in PBS, UVA 30 mW/cm2, 4 min CW or 8 min pulsed + O2, vs non-irradiated control
  relative fluorescence recorded at 450 nm: acquired fluorescence at 450 nm
Corneal collagen [2]; 0.4% in PBS, UVA 30 mW/cm2, 4 min CW or 8 min pulsed + O2, vs controls
  biaxial extensiometry (corneal collagen stiffness): became stiffer
Human serum albumin
  time to complete disappearance on irradiation: ≤ 20 s

## Cc1cc2nc3c(=O)[nH]c(=O)nc-3n(C[C@H](O)[C@H](O)[C@H](O)CO)c2cc1C [riboflavin]
Corneal collagen [1]; 0.1% in BBBS
  fluorescence of the digested corneas in the area 450 nm: elevated fluorescence in the area 450 nm
Corneal collagen [1]; UV 365 nm
  fluorescence of the corneal samples after digestion with papain (excitation 360 nm): fluorescence of the cross-linked collagen samples increases
Corneal collagen [2]; UV 365 nm
  displacement vs. force (corneal stiffening): significant stiffening
Corneal collagen [2]; vs control group, UVA 30 mW/cm^2, 4 min, CW
  average force vs. displacement of corneal flap (tensiometry): higher than the control group

## Cc1cc2nc(C(=O)[O-])c(=O)n(C[C@H](O)[C@H](O)[C@H](O)CO)c2cc1C.O.[Na+] [sodium salt of 1,2-Dihydro-6,7-dimethyl-2-keto-1-D-ribityl-3-quinoxalinecarboxylic acid monohydrate]
Corneal collagen [1]; 0.1% in BBBS
  fluorescence of the digested corneas in the area 450 nm: elevated fluorescence in the area 450 nm
Corneal collagen [1]; 0.1% in BBBS, de-oxygenated with argon, irradiated 4 min at 30 mW/cm^2 in CO2 atmosphere
  fluorescence of the digested corneal flaps (excitation 360 nm): higher than the fluorescence of the corneal flaps cross-linked with riboflavin

## hydrogen peroxide [H2O2]
Corneal collagen [1]; flaps soaked 20 min in 1% H2O2, with or without a further 20 min in 0.1% Iron(II) (FeSO4), no UV
  fluorescence counts of papain digested corneal flaps: not when they were exposed to only H2O2
